Data set [1] in a line: Log P by shaking flask method (n-octanol/water). The format is physicochemical. How it is done: An HPLC system (Shimadzu, Japan) was equipped with a LC-20AD binary pump system, a SIL-20AD auto sampler, a CBM-20A system controller, and a CTO-20A oven. Separation of MHO7 and IS from endogenous substances was carried out on an Agilent Zorbax XDB C18 column (5 μm, 250 × 4.6 mm, Agilent, Pal Alto, CA, USA), which was kept at 30 °C. The mobile phase was composed of 30% phase A (water) and 70% phase B (acetonitrile) with a flow rate of 1 mL·min^−1. The inject volume of the sample solution was 10 μL.
The phases of distilled water and n-octanol were saturated with each other by shaking for 48 h with 250 rpm in a shaking water bath prior to use. Solutions of MHO7 was prepared in concentration of 10 mM·L^−1 in n-octanol. Accurately measured amounts of the two solvents with necessary quantity of MHO7 were placed in a 5.0 mL centrifuge tube; then, the mixture was carried out at 250 rpm and designated temperature in the shaking water bath for 48 h to afford complete phase separation. The samples of both phases were collected at 0, 4, 8, 12, 24, 30, 36 and 48 h, diluted with methanol (1:1, V) and determined by HPLC with the detection wavelength of 234 nm. Each set of solvent systems for experimental logP/D value was the mean of the three determinations.

Data set [2] in a line: Stability in simulated gastric fluid (SGF). Format: in vitro ADME. The settings on record: for percentage concentration remaining in SGF: at 8 h. How it is done: (§1) SGF was prepared with modifications according to Lee et al. (2012) by mixing 100 mL of distilled water with a pH value set to 2.0 with hydrochloric acid and 1 g pepsin solution (800–2000 U/mg of protein). SIF was produced according to USP specifications (Test Solutions, United States Pharmacopeia 35, NF 30, 2012). Monobasic potassium phosphate (0.68 g) was dissolved in 25 mL of water. Then, 7.7 mL of 0.2 M NaOH was added to adjust the pH to 6.8. To this, 1 g of pancreatin was added and shaken gently until dissolved and the volume adjusted to 100 mL with water. Pancreatin was added after adjusting the pH of the solution to 6.8 to avoid precipitation of the enzyme.
(§2) Aliquots (199 µL) of SGF and SIF were placed in 1.5 mL microcentrifuge tubes and incubated at 37 °C for 10 min in a water bath, respectively. Different concentrations of MHO7 (1 µL) were added to each of the above microcentrifuge tubes to start the reaction with being incubated at 37 °C at 250 rpm in a shaking water bath. The reaction was stopped by adding ice ACN (800 µL) to each tube at intervals of 0, 0.5, 1, 2, 4, 6, and 8 h. The samples were vortexed for 15 min and centrifuged at 4 °C and 15,000 rpm for 15 min. After centrifuging the supernatant layer was taken directly for LC-MS analysis. Each experiment was carried out in triplicate, and average values were plotted. QC samples were prepared in the same way of inactivating pepsin in SGF incubation system at the concentrations of 1, 0.1 and 0.01 μM·L^−1 for HQC, MQC and LQC, respectively.

Data set [3] in a line: Stability in simulated intestinal fluid (SIF). The format is in vitro ADME. The conditions noted are these: for percentage concentration remaining in SIF: at 8 h. How it is done: as §1, §2
Setting [4] is: pH 7, 37 °C, octanol/ddH2O, read-out: Log P/D Value O/W (pH 7.0).
Where [5] appears, read: MHO7 added at 0.05 mM·L^−1, 37 °C.
The mark [6] stands for this setting: initial addition 0.5 mM·L^−1, 37 °C.
[7] abbreviates: under the concentration of 5 mM·L^−1.

Like-named read-outs stand apart in the source and are kept apart here.

On to `CC(C)=C/C=C/[C@H](C)[C@H]1CC[C@]2(C)C[C@@H]3C(C)=CC(=O)[C@H]3/C(C=O)=C\C[C@@H]12` [MHO7, 6-epi-ophiobolin G], for which, in data set [1] (25 °C, read-out: Log P Value), the logP at 4 h was found to be 1.23 ± 0.02, the logP at 8 h stood at 1.22 ± 0.04, the logP at 12 h amounted to 1.23 ± 0.03 and the logP at 24 h came out at 1.23 ± 0.02. Besides, in data set [1] (25 °C, read-out: Log P Value), the logP at 30 h turned out to be 1.27 ± 0.15, the logP at 36 h came to 1.27 ± 0.03 and the logP at 48 h stood at 1.29 ± 0.05. Also, in data set [1] (setting [4]), the logP at 4 h stood at 2.55 ± 0.01, the logP at 8 h amounted to 2.51 ± 0.04, the logP at 12 h amounted to 2.48 ± 0.02 and the logP at 24 h stood at 2.49 ± 0.02. In addition, in data set [1] (setting [4]), the logP at 30 h came to 2.47 ± 0.01, the logP at 36 h is 2.49 ± 0.03 and the logP at 48 h came out at 2.48 ± 0.03. For the same compound, in data set [2] (setting [5]), the “percentage concentration remaining in SGF” value was 76.19 ± 0.99%. Moreover, the “percentage concentration remaining in SGF” value in data set [2] (setting [6]) is listed as 80.2 ± 3.15%. Besides, the “stability in SGF” value in data set [2] (setting [7]) is “stable”. Moreover, the “percentage concentration remaining in SIF” value in data set [3] (setting [5]) is listed as 94.83 ± 1.14%. Further, in data set [3] (setting [6]), the “percentage concentration remaining in SIF” value was 89.74 ± 0.86%. Moreover, in data set [3] (setting [7]), the “stability in SIF” value is listed as “stable”.

These data come from article PMC6950057, “Toxicity, Pharmacokinetics, and Gut Microbiome of Oral Administration of Sesterterpene MHO7 Derived from a Marine Fungus” (Marine Drugs, 2019).
